# Assay results published in paper PMC7503831 (Molecules, 2020).
# Entries after “also recorded” stand apart in the source; their conditions may differ. Like-named read-outs stand apart in the source and are kept apart here. Marks after values point to notes of the source that are not given here.
# Assays:
# human DOR [1] = target: T1, human DOR (Homo sapiens, UniProt P41143); assay: Competitive binding assay, [3H]DPDPE displacement, DOR
# T1 construct: expressed in transfected cells; host or cells: CHO cells (membrane preparation)
# Experimental: (§1) The human MOR, DOR, or KOR recombinant CHO cell pellets were resuspended in 50 mM Tris–HCl buffer containing 5 mM MgCl2, 1 mM ethylene glycol bis(2-aminoethyl ether)-N,N,N,N-tetraacetic acid (EGTA), pH 7.4. The cell suspensions were disrupted by use of a glassteflon homogeniser and centrifuged at 48,000× g for 15 min. The supernatant was discarded and the pellets were resuspended in buffer at a concentration of 5 mg protein/mL and stored at −80 °C until further use.
# (§2) Human MOR, DOR, or KOR recombinant CHO cell membranes were incubated for 2 h at 25 °C in 0.25 mL of the buffer containing with various concentrations of the tested compound, 2 nM [^3H] DAMGO, [^3H] […] U69,593 (PerkinElmer, Inc., MA, USA), respectively. The incubation was terminated by collecting membranes on Filtermat B filter (PerkinElmer, Inc.) using a FilterMate™ harvester (PerkinElmer, Inc.). The filters were then washed three times with 50 mM Tris–HCl buffer, pH 7.4. Then, MeltiLex scintillant (PerkinElmer, Inc.) was melted onto the dried filters. Radioactivity was determined by a MicroBeta scintillation counter (PerkinElmer, Inc.). […] Ki and 95% CI values were calculated by Prism software (version 5.0).
# human MOR = target: T2, human MOR (Homo sapiens, UniProt P35372); assay: Competitive binding assay, [3H]DAMGO displacement, MOR
# T2 construct: expressed in transfected cells; host or cells: CHO cells (membrane preparation)
# Experimental: as §1, §2
# human DOR [2] = target: T1, human DOR; assay: [35S]GTPγS binding assay, functional activity for the DOR; type: biochemical; conditions: for Emax: read-out: Functional Activity for DOR, Emax (95% CI)
# Experimental: as §1
# Human MOR, DOR, or KOR recombinant CHO cell membranes were incubated for 2 h at 25 °C in 0.25 mL of 50 mM Tris–HCl buffer containing 5 mM MgCl2, 1 mM EGTA, 100 mM NaCl, pH 7.4 with various concentrations of the tested compound, 30 μM guanosine 5-diphosphate (GDP) and 0.1 nM [^35S]GTPγS (PerkinElmer, Inc.). The incubation was terminated by collecting membranes on Filtermat B filter (PerkinElmer, Inc.) using a FilterMate™ harvester (Perkin Elmer, Inc.). The filters were then washed three times with 50 mM Tris–HCl buffer, pH 7.4. Then, MeltiLex scintillant (PerkinElmer, Inc.) was melted onto the dried filters. Radioactivity was determined by a MicroBeta scintillation counter (PerkinElmer, Inc.). EC50, Emax, and 95% CI values were calculated by Prism software (version 5.0). Nonspecific binding was measured in the presence of 10 μM unlabeled GTPγS (PerkinElmer, Inc.).
# human KOR = target: T3, human KOR (Homo sapiens, UniProt P41145); assay: Competitive binding assay, [3H]U69,593 displacement, KOR
# T3 construct: expressed in transfected cells; host or cells: CHO cells (membrane preparation)
# Experimental: as §1, §2
# human DOR [3] = target: T1, human DOR; conditions: cited from earlier work; for Emax: Percent stimulation at 10 μM of the tested compound / Emax for the DOR (95% CI) / Functional Activity for DOR, Emax (95% CI) / EC50: [35S]GTPγS
# human DOR [4] = target: T1, human DOR; conditions: cited from earlier work
# [5] = read-out: Binding Affinity, Ki (DOR) (95% CI), [3H]DPDPE, CHO cells expressing human DOR
# [6] = read-out: Functional Activity for DOR, EC50 (95% CI), human DOR recombinant CHO cell membrane
# [7] = read-out: Ki for the DOR (95% CI)
# [8] = read-out: EC50 for the DOR (95% CI)
SMILES,Ki (human DOR [1]) [nM],Ki (human MOR) [nM],"Functional activity for the DOR, in words (human DOR [2]; [35S]GTPγS)",Emax (human DOR [2]) [%],Ki (human KOR) [nM],Emax for the DOR (95% CI) (human DOR [3]) [%],Ki (human DOR [4]; [7]) [nM],further results
"CS(=O)(=O)N1CCC23c4c5ccc(O)c4OC2c2[nH]c4ccccc4c2CC3(O)C1C5 (stereo not drawn) [9a, 6,7-Didehydro-4,5α-epoxy-17-(methylsulfonyl)indolo[2′,3′:6,7]morphinan-3,14β-diol]",284,10100,inverse agonist activities,-48.8,,,,EC50 (human DOR [2]): 0.468 nM
"O=S(=O)(N1CCC23c4c5ccc(O)c4OC2c2[nH]c4ccccc4c2CC3(O)C1C5)C(F)(F)F (stereo not drawn) [9b, 6,7-Didehydro-4,5α-epoxy-17-(1,1,1-trifluoromethylsulfonyl)indolo[2′,3′:6,7]morphinan-3,14β-diol]",365,11800,inverse agonist activities,,675,,,"Emax at 10 µM (human DOR [2]; read-out: Emax: Percent stimulation at 10 μM of the tested compound, [35S]GTPγS, 10 μM): -36.1%"
"O=S(=O)(c1ccccc1)N1CCC23c4c5ccc(O)c4OC2c2[nH]c4ccccc4c2CC3(O)C1C5 (stereo not drawn) [9c, 6,7-Didehydro-4,5α-epoxy-17-(phenylsulfonyl)indolo[2′,3′:6,7]morphinan-3,14β-diol]",49.6,20500,neutral DOR antagonist,,95.6,,,
"O=S(=O)(Cc1ccccc1)N1CCC23c4c5ccc(O)c4OC2c2[nH]c4ccccc4c2CC3(O)C1C5 (stereo not drawn) [9d, 17-(Benzylsulfonyl)-6,7-didehydro-4,5α-epoxyindolo[2′,3′:6,7]morphinan-3,14β-diol]",734,5180,DOR agonists,47.1,18800,,,"Binding affinity for the DOR, in words (human DOR [1]): low"
"O=S(=O)(CCc1ccccc1)N1CCC23c4c5ccc(O)c4OC2c2[nH]c4ccccc4c2CC3(O)C1C5 (stereo not drawn) [9e, 6,7-Didehydro-4,5α-epoxy-17-((2-phenylethyl)sulfonyl)indolo[2′,3′:6,7]morphinan-3,14β-diol]",132,1400,DOR agonists; also recorded: full DOR agonist activity with moderate potency,88.1,17800,,,EC50 (human DOR [2]): 75.8 nM; Functional activity category for the DOR (by Emax) (human DOR [2]; [35S]GTPγS): full agonist
"O=S(=O)(C1CC1)N1CCC23c4c5ccc(O)c4OC2c2[nH]c4ccccc4c2CC3(O)C1C5 (stereo not drawn) [9f, 17-(Cyclopropylsulfonyl)-6,7-didehydro-4,5α-epoxyindolo[2′,3′:6,7]morphinan-3,14β-diol]",7.44,3900,inverse agonist activities; also recorded: almost full inverse agonists,-80.5,13.6,,,"Affinity for the DOR, fold lower than that of the mother compound NTI (human DOR [1]; Ki compared with NTI): over 10 fold; EC50 (human DOR [2]): 1.59 nM; Functional activity category for the DOR (by Emax) (human DOR [2]; [35S]GTPγS): full inverse agonist (full inverse agonist (−80% ≥ Emax))"
"C=CS(=O)(=O)N1CCC23c4c5ccc(O)c4OC2c2[nH]c4ccccc4c2CC3(O)C1C5 (stereo not drawn) [9g, 6,7-Didehydro-4,5α-epoxy-17-(ethenylsulfonyl)indolo[2′,3′:6,7]morphinan-3,14β-diol]",196,3570,inverse agonist activities; also recorded: almost full inverse agonists,-80.2,59100,,,EC50 (human DOR [2]): 7.8 nM
"Oc1ccc2c3c1O[C@H]1c4[nH]c5ccccc5c4C[C@@]4(O)[C@@H](C2)N(CC2CC2)CC[C@]314 [NTI, naltrindole]",,,,,,,,"Emax: Percent stimulation at 10 μM of the tested compound (human DOR [3]): 7.50 ^h %; Functional activity for the DOR, in words (human DOR [3]): neutral antagonist"
Oc1ccc2c3c1O[C@H]1c4[nH]c5ccccc5c4C[C@@]4(O)[C@@H](C2)N(CC(F)(F)F)CC[C@]314 [SYK-165],,,,,,−44.8,,
Oc1ccc2c3c1O[C@H]1c4[nH]c5ccccc5c4C[C@@]4(O)[C@@H](C2)N(Cc2ccccc2)CC[C@]314 [SYK-619],,,,,,,,"Ki (human DOR [4]; [5]): 15.8 nM; Functional Activity for DOR, Emax (95% CI) (human DOR [3]): −56.5%; EC50 (human DOR [3]; [6]): 16.1 nM"
O=C(C1CC1)N1CC[C@]23c4c5ccc(O)c4O[C@H]2c2[nH]c4ccccc4c2C[C@@]3(O)[C@H]1C5 [SYK-623],,,,,,−91.2,17.3,"Functional activity for the DOR, in words (human DOR [3]): full inverse agonist; Functional activity for the DOR, in words (human DOR [3]; listed as SKY-623): DOR full inverse agonist with high potency; EC50 (human DOR [3]; [8]): 0.969 nM"
C=CCN1CC[C@]23c4c5ccc(O)c4O[C@H]2c2[nH]c4ccccc4c2C[C@@]3(O)[C@H]1C5 [SYK-706],,,,,,,,"Ki (human DOR [4]; [5]): 0.609 nM; Functional Activity for DOR, Emax (95% CI) (human DOR [3]): 16.2%; EC50 (human DOR [3]; [6]): 101 nM"
Oc1ccc2c3c1O[C@H]1c4[nH]c5ccccc5c4C[C@@]4(O)[C@@H](C2)N(CCc2ccccc2)CC[C@]314 [SYK-707],,,,,,,,"Ki (human DOR [4]; [5]): 1.94 nM; Functional Activity for DOR, Emax (95% CI) (human DOR [3]): 40.3%; EC50 (human DOR [3]; [6]): 15.1 nM"
O=C(c1ccccc1)N1CC[C@]23c4c5ccc(O)c4O[C@H]2c2[nH]c4ccccc4c2C[C@@]3(O)[C@H]1C5 [SYK-736],,,,,,−92.7,290,EC50 (human DOR [3]; [8]): 322 nM
CC(=O)N1CC[C@]23c4c5ccc(O)c4O[C@H]2c2[nH]c4ccccc4c2C[C@@]3(O)[C@H]1C5 [SYK-747],,,,,,,977,Emax: Percent stimulation at 10 μM of the tested compound (human DOR [3]): −4.86%
O=C(N1CC[C@]23c4c5ccc(O)c4O[C@H]2c2[nH]c4ccccc4c2C[C@@]3(O)[C@H]1C5)C(F)(F)F [SYK-752],,,,,,,7.84,Emax: Percent stimulation at 10 μM of the tested compound (human DOR [3]): −1.10%
O=C(CCc1ccccc1)N1CC[C@]23c4c5ccc(O)c4O[C@H]2c2[nH]c4ccccc4c2C[C@@]3(O)[C@H]1C5 [SYK-753],,,,,,97.5,41.5,EC50 (human DOR [3]; [8]): 132 nM
O=C(Cc1ccccc1)N1CC[C@]23c4c5ccc(O)c4O[C@H]2c2[nH]c4ccccc4c2C[C@@]3(O)[C@H]1C5 [SYK-754],,,,,,88.5,89,"Functional activity for the DOR, in words (human DOR [3]): DOR full agonist with moderate potency; EC50 (human DOR [3]; [8]): 127 nM"
C=CC(=O)N1CC[C@]23c4c5ccc(O)c4O[C@H]2c2[nH]c4ccccc4c2C[C@@]3(O)[C@H]1C5 [SYK-836],,,,,,−86.2,1.16,EC50 (human DOR [3]; [8]): 1.43 nM
Oc1ccc2c3c1O[C@H]1c4[nH]c5ccccc5c4C[C@@]4(O)[C@@H](C2)N(CCCc2ccccc2)CC[C@]314 [SYK-903],166,,,105,,,,EC50 (human DOR [2]): 7.37 nM
